The text below walks through data of patent US20210308089A1, “METHODS OF TREATING AND/OR PREVENTING VIRAL INFECTIONS AND/OR DISEASES CAUSED BY VIRUSES IN A SUBJECT IN NEED THEREOF” (priority 2020, published 2021).

The conditions of the data set: human, in vivo, 1 year. On the procedure:
Additional laboratory tests: Additional laboratory tests were performed and included: • A urine pregnancy test was administered to women of childbearing potential at certain visits as listed in schedule of procedures (Table 1). The urine pregnancy tests were performed at the Research Site utilizing marketed test kits, or at a certified clinical laboratory; • A fasting blood sample (10 mL) for archiving. This sample was collected only at sites in countries where allowed by local regulations and at sites for which approved by the IRB or IEC. The plasma from the archiving sample was stored frozen in 2 separate equal aliquots, and was used at the Sponsor's discretion to perform repeat analyses described in the protocol or to perform other tests related to cardiovascular health; and • Potential non-genetic bioassays were performed, including but not limited to: Apo A1, Apo C3, Apo E, NMR lipid profile (particle size and number), oxidized LDL, Lp(a), Lp-PLA2, serum fatty-acids concentrations, and gamma-glutamyltransferase (GGT).
In addition, the following were analyzed as tertiary endpoints for the ITT population: • Relationship between on-treatment hs-CRP and the primary and key secondary endpoints; and • Relationship between on-treatment serum eicosapentaenoic acid (EPA) and the primary and key secondary endpoints. […]

With `CC/C=C\C/C=C\C/C=C\C/C=C\C/C=C\CCCC(=O)OCC` [icosapent ethyl, eicosapentaenoic acid ethyl ester], the “EPA between group difference, median % change from baseline” value was 358.8% and the “EPA between group difference, median absolute change from baseline” value stood at 114.9 µg/mL.
